According to the kinase profiling compilation of Christmann-Franck et al. (2016):

Experiments:
Assay in all cases: KINOMEscan competition binding
Conditions in all cases: compound 10.0 µM
CDC2L2 (human) = CDC2L2 (human) (UniProt Q9UQ88)
MAP4K4 (human) = MAP4K4 (human) (UniProt O95819)
ERBB2 (human) = ERBB2 (human) (UniProt P04626)
PAK1 (human) = PAK1 (human) (UniProt Q13153)
CDK9 (human) = CDK9 (human) (UniProt P50750)
AKT3 (human) = AKT3 (human) (UniProt Q9Y243)
NLK (human) = NLK (human) (UniProt Q9UBE8)
CSNK1G3 (human) = CSNK1G3 (human) (UniProt Q9Y6M4)
CAMK2B (human) = CAMK2B (human) (UniProt Q13554)
FGR (human) = FGR (human) (UniProt P09769)
LIMK2 (human) = LIMK2 (human) (UniProt P53671)
MST4 (human) = MST4 (human) (UniProt Q9P289)
PRKCQ (human) = PRKCQ (human) (UniProt Q04759)
LATS1 (human) = LATS1 (human) (UniProt O95835)
CAMK2A (human) = CAMK2A (human) (UniProt Q9UQM7)
AURKC (human) = AURKC (human) (UniProt Q9UQB9)
MAPK6 (human) = MAPK6 (human) (UniProt Q16659)
AKT2 (human) = AKT2 (human) (UniProt P31751)
CSNK2A2 (human) = CSNK2A2 (human) (UniProt P19784)
CDK8 (human) = CDK8 (human) (UniProt P49336)
PRKCH (human) = PRKCH (human) (UniProt P24723)
CSNK2A1 (human) = CSNK2A1 (human) (UniProt P68400)
PRKD1 (human) = PRKD1 (human) (UniProt Q15139)
NUAK2 (human) = NUAK2 (human) (UniProt Q9H093)
CAMK2D (human) = CAMK2D (human) (UniProt Q13557)
RIPK1 (human) = RIPK1 (human) (UniProt Q13546)
RPS6KA4 KD2 (human) = RPS6KA4 KD2 (human) (UniProt O75676)
MYLK (human) = MYLK (human) (UniProt Q15746)
BRSK1 (human) = BRSK1 (human) (UniProt Q8TDC3)
RIOK1 (human) = RIOK1 (human) (UniProt Q9BRS2)
SIK2 (human) = SIK2 (human) (UniProt Q9H0K1)
MKNK1 (human) = MKNK1 (human) (UniProt Q9BUB5)
MELK (human) = MELK (human) (UniProt Q14680)
CLK1 (human) = CLK1 (human) (UniProt P49759)
FLT4 (human) = FLT4 (human) (UniProt P35916)
TNIK (human) = TNIK (human) (UniProt Q9UKE5)
PRKAA1 (human) = PRKAA1 (human) (UniProt Q13131)
SRPK1 (human) = SRPK1 (human) (UniProt Q96SB4)
CSNK1G2 (human) = CSNK1G2 (human) (UniProt P78368)
STK35 (human) = STK35 (human) (UniProt Q8TDR2)

MST4 (human), sequence (Q9P289 whole entry, looked up): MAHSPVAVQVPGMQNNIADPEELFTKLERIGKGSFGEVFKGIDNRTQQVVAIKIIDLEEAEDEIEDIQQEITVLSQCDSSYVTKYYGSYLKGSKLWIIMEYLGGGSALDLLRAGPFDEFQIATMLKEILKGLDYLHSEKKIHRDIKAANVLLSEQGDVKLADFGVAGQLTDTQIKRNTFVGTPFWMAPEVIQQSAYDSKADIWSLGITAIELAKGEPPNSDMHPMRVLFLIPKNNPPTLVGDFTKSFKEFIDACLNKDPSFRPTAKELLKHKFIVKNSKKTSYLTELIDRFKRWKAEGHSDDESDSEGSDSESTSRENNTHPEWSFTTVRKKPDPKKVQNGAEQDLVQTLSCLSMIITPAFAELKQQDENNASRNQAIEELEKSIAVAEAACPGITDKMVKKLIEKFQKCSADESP
CLK1 (human), sequence (P49759 whole entry, looked up): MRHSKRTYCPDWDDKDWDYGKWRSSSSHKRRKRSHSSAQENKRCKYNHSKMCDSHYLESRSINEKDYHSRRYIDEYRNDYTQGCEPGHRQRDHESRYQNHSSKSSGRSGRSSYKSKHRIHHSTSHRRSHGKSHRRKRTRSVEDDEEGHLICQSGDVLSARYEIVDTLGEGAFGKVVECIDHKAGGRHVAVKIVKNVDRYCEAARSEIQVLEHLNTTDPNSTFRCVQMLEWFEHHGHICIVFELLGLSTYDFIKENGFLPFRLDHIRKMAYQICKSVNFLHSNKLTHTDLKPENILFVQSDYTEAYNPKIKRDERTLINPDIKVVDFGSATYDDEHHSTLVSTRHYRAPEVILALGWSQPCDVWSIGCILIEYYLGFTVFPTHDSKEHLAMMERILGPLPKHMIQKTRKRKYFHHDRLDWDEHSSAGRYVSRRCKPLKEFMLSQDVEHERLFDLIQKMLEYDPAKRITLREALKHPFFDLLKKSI
CSNK1G2 (human), sequence (P78368 whole entry, looked up): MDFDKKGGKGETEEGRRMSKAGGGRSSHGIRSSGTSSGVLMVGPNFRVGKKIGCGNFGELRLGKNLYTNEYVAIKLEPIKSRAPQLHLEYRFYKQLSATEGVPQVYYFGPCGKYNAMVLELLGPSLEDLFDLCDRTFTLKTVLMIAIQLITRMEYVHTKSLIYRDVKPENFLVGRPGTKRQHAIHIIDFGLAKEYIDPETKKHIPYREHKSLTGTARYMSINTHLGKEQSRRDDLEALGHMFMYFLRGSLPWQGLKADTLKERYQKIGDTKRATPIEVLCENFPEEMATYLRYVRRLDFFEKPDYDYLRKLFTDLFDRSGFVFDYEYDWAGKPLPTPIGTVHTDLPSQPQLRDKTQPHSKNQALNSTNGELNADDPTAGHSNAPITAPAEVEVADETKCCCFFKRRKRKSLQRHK
PRKCQ (human), sequence (Q04759 whole entry, looked up): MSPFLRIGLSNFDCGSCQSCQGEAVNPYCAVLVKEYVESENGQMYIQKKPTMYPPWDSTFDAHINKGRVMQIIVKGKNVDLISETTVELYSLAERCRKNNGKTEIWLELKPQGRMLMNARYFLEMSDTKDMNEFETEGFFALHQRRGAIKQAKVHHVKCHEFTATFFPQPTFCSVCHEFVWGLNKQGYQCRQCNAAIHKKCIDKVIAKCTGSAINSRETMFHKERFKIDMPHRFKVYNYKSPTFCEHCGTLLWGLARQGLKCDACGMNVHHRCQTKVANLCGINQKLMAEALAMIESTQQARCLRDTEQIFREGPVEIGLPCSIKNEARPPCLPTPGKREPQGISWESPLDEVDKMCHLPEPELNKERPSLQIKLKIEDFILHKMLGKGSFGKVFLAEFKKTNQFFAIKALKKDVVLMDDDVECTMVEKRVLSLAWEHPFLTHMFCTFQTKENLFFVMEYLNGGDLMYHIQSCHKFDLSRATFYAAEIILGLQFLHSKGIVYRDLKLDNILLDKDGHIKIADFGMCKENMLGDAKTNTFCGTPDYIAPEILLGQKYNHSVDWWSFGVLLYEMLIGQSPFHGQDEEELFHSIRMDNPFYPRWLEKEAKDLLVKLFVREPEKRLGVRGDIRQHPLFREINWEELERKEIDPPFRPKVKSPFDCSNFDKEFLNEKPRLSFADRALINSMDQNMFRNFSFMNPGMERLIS
CAMK2B (human), sequence (Q13554 whole entry, looked up): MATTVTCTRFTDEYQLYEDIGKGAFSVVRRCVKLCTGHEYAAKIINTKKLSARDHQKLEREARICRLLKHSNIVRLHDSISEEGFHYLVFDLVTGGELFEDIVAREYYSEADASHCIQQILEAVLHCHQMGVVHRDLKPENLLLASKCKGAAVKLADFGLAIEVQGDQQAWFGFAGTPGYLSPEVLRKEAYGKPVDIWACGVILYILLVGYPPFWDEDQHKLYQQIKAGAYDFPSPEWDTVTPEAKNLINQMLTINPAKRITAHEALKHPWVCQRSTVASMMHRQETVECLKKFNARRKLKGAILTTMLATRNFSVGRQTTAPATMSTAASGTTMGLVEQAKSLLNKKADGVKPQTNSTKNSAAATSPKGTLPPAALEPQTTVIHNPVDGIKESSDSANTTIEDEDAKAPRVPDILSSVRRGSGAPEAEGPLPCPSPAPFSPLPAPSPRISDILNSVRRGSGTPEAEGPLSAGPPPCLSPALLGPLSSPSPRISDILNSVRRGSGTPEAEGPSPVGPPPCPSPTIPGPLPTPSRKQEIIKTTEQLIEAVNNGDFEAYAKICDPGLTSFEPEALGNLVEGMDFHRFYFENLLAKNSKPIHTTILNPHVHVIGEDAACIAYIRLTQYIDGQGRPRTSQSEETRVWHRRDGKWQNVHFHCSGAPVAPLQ
BRSK1 (human), sequence (Q8TDC3 whole entry, looked up): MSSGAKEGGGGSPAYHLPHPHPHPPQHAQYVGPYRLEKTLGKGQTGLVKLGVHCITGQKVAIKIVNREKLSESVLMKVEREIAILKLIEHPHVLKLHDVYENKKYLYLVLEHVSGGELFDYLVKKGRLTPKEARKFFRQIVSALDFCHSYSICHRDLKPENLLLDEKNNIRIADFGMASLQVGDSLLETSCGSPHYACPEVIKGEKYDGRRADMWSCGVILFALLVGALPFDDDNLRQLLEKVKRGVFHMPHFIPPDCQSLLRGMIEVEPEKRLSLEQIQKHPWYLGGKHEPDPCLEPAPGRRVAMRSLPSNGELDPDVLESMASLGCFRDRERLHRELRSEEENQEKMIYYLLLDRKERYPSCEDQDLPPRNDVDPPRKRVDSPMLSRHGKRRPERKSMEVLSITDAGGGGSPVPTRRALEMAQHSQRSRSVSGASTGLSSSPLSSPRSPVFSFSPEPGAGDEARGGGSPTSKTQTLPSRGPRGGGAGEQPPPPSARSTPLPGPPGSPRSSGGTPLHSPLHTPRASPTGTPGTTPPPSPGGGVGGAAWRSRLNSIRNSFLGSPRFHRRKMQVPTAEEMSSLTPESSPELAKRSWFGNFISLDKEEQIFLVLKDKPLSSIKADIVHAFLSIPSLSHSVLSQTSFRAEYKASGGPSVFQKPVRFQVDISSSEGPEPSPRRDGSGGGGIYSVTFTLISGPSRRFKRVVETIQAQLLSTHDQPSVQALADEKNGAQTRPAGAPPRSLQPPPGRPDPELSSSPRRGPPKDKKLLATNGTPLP
CAMK2D (human), sequence (Q13557 whole entry, looked up): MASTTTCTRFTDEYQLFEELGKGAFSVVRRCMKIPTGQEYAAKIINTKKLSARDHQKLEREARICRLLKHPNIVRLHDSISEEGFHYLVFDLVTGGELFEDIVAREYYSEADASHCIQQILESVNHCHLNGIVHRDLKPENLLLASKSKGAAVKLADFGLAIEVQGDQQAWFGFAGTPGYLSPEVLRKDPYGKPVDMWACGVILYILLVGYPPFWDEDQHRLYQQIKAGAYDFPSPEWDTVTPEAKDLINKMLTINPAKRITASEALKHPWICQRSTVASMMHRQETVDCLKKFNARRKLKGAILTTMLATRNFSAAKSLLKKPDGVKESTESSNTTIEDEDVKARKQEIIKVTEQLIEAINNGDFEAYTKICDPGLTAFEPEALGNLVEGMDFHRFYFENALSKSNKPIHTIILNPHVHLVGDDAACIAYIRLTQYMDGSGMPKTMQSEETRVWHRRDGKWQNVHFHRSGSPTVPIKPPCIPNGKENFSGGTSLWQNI
CDC2L2 (human), sequence (Q9UQ88 whole entry, looked up): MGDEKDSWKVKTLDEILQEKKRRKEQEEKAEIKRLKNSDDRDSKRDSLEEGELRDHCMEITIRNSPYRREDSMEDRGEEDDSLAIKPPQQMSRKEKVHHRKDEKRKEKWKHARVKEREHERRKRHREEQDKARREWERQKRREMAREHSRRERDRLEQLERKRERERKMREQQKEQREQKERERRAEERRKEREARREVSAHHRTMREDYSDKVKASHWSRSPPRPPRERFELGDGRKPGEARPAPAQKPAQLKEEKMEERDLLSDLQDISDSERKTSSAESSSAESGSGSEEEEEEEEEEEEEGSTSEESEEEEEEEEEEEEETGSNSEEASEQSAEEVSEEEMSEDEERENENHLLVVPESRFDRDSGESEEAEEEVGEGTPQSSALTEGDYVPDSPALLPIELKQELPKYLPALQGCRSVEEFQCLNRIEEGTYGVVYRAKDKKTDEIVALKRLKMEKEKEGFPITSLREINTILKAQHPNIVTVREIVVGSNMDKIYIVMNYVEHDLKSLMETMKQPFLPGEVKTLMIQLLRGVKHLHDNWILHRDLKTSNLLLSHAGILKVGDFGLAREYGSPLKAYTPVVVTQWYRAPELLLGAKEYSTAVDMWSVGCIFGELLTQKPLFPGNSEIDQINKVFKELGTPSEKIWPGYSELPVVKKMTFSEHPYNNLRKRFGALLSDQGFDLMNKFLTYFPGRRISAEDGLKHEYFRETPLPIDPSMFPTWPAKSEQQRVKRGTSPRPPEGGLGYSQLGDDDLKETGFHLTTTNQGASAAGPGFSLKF

Structure (SMILES)	kinase still bound, per cent of control (CDC2L2 (human)) [%]	kinase still bound, per cent of control (MAP4K4 (human)) [%]	kinase still bound, per cent of control (ERBB2 (human)) [%]	kinase still bound, per cent of control (PAK1 (human)) [%]	kinase still bound, per cent of control (CDK9 (human)) [%]	kinase still bound, per cent of control (AKT3 (human)) [%]	kinase still bound, per cent of control (NLK (human)) [%]	kinase still bound, per cent of control (CSNK1G3 (human)) [%]	kinase still bound, per cent of control (CAMK2B (human)) [%]	kinase still bound, per cent of control (FGR (human)) [%]	kinase still bound, per cent of control (LIMK2 (human)) [%]	kinase still bound, per cent of control (MST4 (human)) [%]	kinase still bound, per cent of control (PRKCQ (human)) [%]	kinase still bound, per cent of control (LATS1 (human)) [%]	kinase still bound, per cent of control (CAMK2A (human)) [%]	kinase still bound, per cent of control (AURKC (human)) [%]	kinase still bound, per cent of control (MAPK6 (human)) [%]	kinase still bound, per cent of control (AKT2 (human)) [%]	kinase still bound, per cent of control (CSNK2A2 (human)) [%]	kinase still bound, per cent of control (CDK8 (human)) [%]	also measured
N#Cc1c(NC(=O)c2cccc3ccccc23)sc2c1CCCC2	100	66	87	100	83	82	65	68	90	100	100	79	86	93	92	87	86	100	94	100	kinase still bound, per cent of control (PRKCH (human)): 87%; kinase still bound, per cent of control (CSNK2A1 (human)): 89%; kinase still bound, per cent of control (PRKD1 (human)): 100%; kinase still bound, per cent of control (NUAK2 (human)): 95%; kinase still bound, per cent of control (CAMK2D (human)): 93%; kinase still bound, per cent of control (RIPK1 (human)): 87%; kinase still bound, per cent of control (RPS6KA4 KD2 (human)): 100%; kinase still bound, per cent of control (MYLK (human)): 99%; kinase still bound, per cent of control (BRSK1 (human)): 100%; kinase still bound, per cent of control (RIOK1 (human)): 100%; kinase still bound, per cent of control (SIK2 (human)): 78%; kinase still bound, per cent of control (MKNK1 (human)): 100%; kinase still bound, per cent of control (MELK (human)): 85%; kinase still bound, per cent of control (CLK1 (human)): 69%; kinase still bound, per cent of control (FLT4 (human)): 91%; kinase still bound, per cent of control (TNIK (human)): 100%; kinase still bound, per cent of control (PRKAA1 (human)): 80%; kinase still bound, per cent of control (SRPK1 (human)): 100%; kinase still bound, per cent of control (CSNK1G2 (human)): 57%; kinase still bound, per cent of control (STK35 (human)): 64%
O=C(NOC[C@H](O)CO)c1ccc(F)c(F)c1Nc1ccc(I)cc1F	100	69	100	100	76	89	77	67	100	95	100	77	100	100	100	45	83	100	100	100	kinase still bound, per cent of control (PRKCH (human)): 100%; kinase still bound, per cent of control (CSNK2A1 (human)): 77%; kinase still bound, per cent of control (PRKD1 (human)): 100%; kinase still bound, per cent of control (NUAK2 (human)): 99%; kinase still bound, per cent of control (CAMK2D (human)): 100%; kinase still bound, per cent of control (RIPK1 (human)): 85%; kinase still bound, per cent of control (RPS6KA4 KD2 (human)): 100%; kinase still bound, per cent of control (MYLK (human)): 96%; kinase still bound, per cent of control (BRSK1 (human)): 100%; kinase still bound, per cent of control (RIOK1 (human)): 95%; kinase still bound, per cent of control (SIK2 (human)): 92%; kinase still bound, per cent of control (MKNK1 (human)): 100%; kinase still bound, per cent of control (MELK (human)): 80%; kinase still bound, per cent of control (CLK1 (human)): 95%; kinase still bound, per cent of control (FLT4 (human)): 94%; kinase still bound, per cent of control (TNIK (human)): 100%; kinase still bound, per cent of control (PRKAA1 (human)): 100%; kinase still bound, per cent of control (SRPK1 (human)): 100%; kinase still bound, per cent of control (CSNK1G2 (human)): 95%; kinase still bound, per cent of control (STK35 (human)): 83%
